In patent US10288604B2, “Method for imaging cell using fluorescence-labeled sugar derivative having coumarin derivative bound thereto, and imaging agent” (HIROSAKI UNIVERSITY, priority 2012, dated 2019):

Legend:
[1] = system: tumor cell cluster composed of mouse insulinoma cells (MIN6); assay: Imaging of tumor cell cluster composed of MIN6 cells (real time laser scanning confocal microscope); type: cell-based
Experimental: A culture solution prepared by suspending MIN6 cells at a proportion of 10×10^4 cells/mL was dropped in an amount of 10 μL on a glass cover slip, then, allowed to adhere to the glass surface, and 3 mL of the culture solution was added and cultured. The half quantity of the culture solution was changed every three days.
Cryopreserved MIN6 cells (cells donated from Professor Miyazaki Junichi of Osaka University and cultured 5 to 8 passages) were subjected to culture according to an ordinary method, and cultured 7 to 9 passages which were used in experiments. The half amount of the culture solution was changed every two days.
NaCl 120.0 mM, KCl 4.75 mM, KH2 PO4 1.19 mM, MgSO4.7H2O 1.19 mM, CaCl2.2H2O 1 mM, NaHCO3 5.02 mM, D-Glucose 5.6 mM, HEPES 10 mM (adjusted to pH 7.35 with 1M NaOH). For inhibiting entrance and elimination of fluorescently labeled glucose via a gap junction/hemichannel, 0.1 mM Carbenoxolone (SIGMA #C4790) was added. The HEPES solution for image acquisition was used as a solution for preparing a 2-PBLG solution and as a solution for preparing a 2-PBLG/2-TRLG solution and 2-PBLG/2-NBDLG/2-TRLG solution.
A glass cover slip wherein MIN6 cells had been cultured was transferred into a HEPES solution for image acquisition in a perfusion chamber set on a universal stage (Leica 11600234) on a confocal laser scanning microscope (TCS SP5 available from Leica), and adhered gently and tightly to the glass surface at the bottom of the chamber. […] Further, there is an excellent effect that in the space sandwiched by the metal guides, the perfusion solution flows smoothly as a laminar flow and quick solution exchange is possible.
A perfusion solution feeding system is equipped with one 60 mL cylinder for a control solution and five 10 mL cylinders for agent feeding, which can be switched as needed by a magnetic valve to allow perfusion. In experiments according to the present invention, a 5.6 mM glucose-containing HEPES solution for image acquisition was administered using the 60 mL cylinder and a mixed solution of 2-PBLG/2-NBDLG/2-TRLG, a mixed solution of 2-PBDG/2-TRLG, or a mixed solution of 2-PBLG/2-TRLG was administered using one of the five 10 mL cylinders. As described below, to avoid generation of bubbles in the perfusion chamber, both the solutions were heated beforehand, combined in one tube before being introduced into the perfusion chamber, the flow rate thereof being controlled by a flow rate controller, then, heated again by an inline heater and fed to the perfusion chamber on the confocal microscope.
A laser scan confocal microscope (manufactured by Leica, TCS-SP5 system, microscope body is DMI6000 CS trino electromotive inverted microscope) was used in conventional mode. Regarding laser used, a 405 nm diode laser was used for excitation of 2-PBLG and 2-PBDG, excitation of a mixed solution of 2-PBLG (or 2-PBDG) and 2-TRLG with a single light source, or live staining of nucleus by DAPI. The irradiation intensity was appropriately adjusted in accordance with the fluorescent pigment used so as to obtain sufficient observation intensity by an acoustic optical polarization element (Acoustic Optical Tunable Filter, AOTF). 2-NBDLG and 2-TRLG were excited by 488 nm Argon laser. The scan speed was 200 Hz or 400 Hz.
In fluorescence detection, a photomultiplier detector (PMT) 1 was used for detection of blue fluorescence by 2-PBDG or 2-PBLG and images were acquired in a wavelength detection range set at 415-580 nm in the case of detection of bicolor of 2-PBLG/2-TRLG and in a wavelength detection range set at 415-500 nm in the case of detection of tricolor of 2-PBLG/2-NBDLG/2-TRLG. For detection of green fluorescence by 2-NBDLG, PMT2 (called green channel, the same shall apply hereinafter) was used in a wavelength detection range of 500-580 nm. For detection of red fluorescence by 2-TRLG, PMT3 (called red channel, the same shall apply hereinafter) was used in a wavelength detection range of 580-740 nm. […]

[2] = system: neurons acutely dissociated from mouse midbrain substantia nigra pars reticulata; assay: Application of fluorescent sugar derivatives to acutely dissociated normal neurons (confocal imaging of uptake); type: cell-based
Experimental: This was conducted according to a method described in WO 2010/16587.
Living neurons were acutely dissociated from mouse midbrain substantia nigra pars reticulata, and to which a mixed solution containing 100 μM of 2-PBDG and 20 μM of 2-TRLG was administered at 37° C. for 5 minutes. FIGS. 1A to C represent confocal microscopic images taken immediately before this. A is a fluorescence image in blue wavelength region (Blue channel, wavelength range: 415-580 nm). The position of cells is recognized by autofluorescence. The fluorescence signal intensity is represented by pseudocolor. B is a fluorescence image in red wavelength region (Red channel, 580-740 nm). A and B were obtained both by simultaneous excitation using 405 nm Blue diode laser at an intensity of 60%, wherein photomultipliers (PMT) 1 and 2 were used respectively, and the detection sensitivity of PMT2 was raised higher than PMT1 so that the presence or absence of invasion of 2-TRLG can be detected in a sensitive manner. C is a view in which the bright field image is overlaid on the fluorescence images of A and B.
An experiment was conducted in the same manner as in Example 2.
FIGS. 2A to C represent confocal microscopic images immediately before administration of a mixed solution containing 100 μM of 2-PBLG and 20 μM of 2-TRLG at 37° C. to acutely dissociated neurons of mouse midbrain substantia nigra pars reticulata for 5 minutes.
FIG. 3 represents confocal microscopic images before and after administration of a mixed solution containing 100 μM of 2-HCDG and 20 μM of 2-TRLG at 37° C. for 3 minutes to neurons acutely dissociated from mouse midbrain substantia nigra pars reticulata. A and B are fluorescence images acquired before administration in Blue channel (415-580 nm) and Red channel (580-740 nm), respectively. The excitation wavelength is 405 nm. C is an image of differential interference (Differential Interference contrast, DIC). D is an overlay of the above-described images. E to H are the same as A to D, excepting that E to H are images acquired 4 minutes after initiation of washout of the fluorescence tracer solution after administration of the 2-HCDG+2-TRLG fluorescence tracer solution at 37° C. for 3 minutes. […] Since invasion of 2-TRLG into a cell is not observed, the plasma membrane of the neuron is thought to be maintained intactly.
Since the optimal excitation wavelength was as very low as 320 nm in this experiment, an image was acquired by Retiga-2000R CCD camera manufactured by Q-imaging via a custom-order filter constituted of an excitation filter (320 nm) (half width: 40 nm), a fluorescence filter (435 nm) (half width: 40 nm) and a dichroic mirror (409 nm), by a xenon lamp, using Nikon Ti-E real time deconvolution microscope.

[3] = mixed solution 100 μM 2-PBLG and 20 μM 2-TRLG

O=C(NC1C(O)OC(CO)[C@H](O)C1O)c1cc2cc(F)c(O)c(F)c2oc1=O (stereo partly drawn) [2-PBLG, 2-Deoxy-2-((6,8-difluoro-7-hydroxycoumarin-3-yl)carboxamido)-L-glucose]
fluorescence of cells in the cell cluster 8 minutes after initiation of washout [1, 3]: scattered around the outer edge of the center of a cell cluster | fluorescence of cells in the cell cluster 12 minutes after initiation of washout [1, 3]: still multiple cells showing the strongly positive signal | fluorescence of cells in the cell cluster 2 minutes after initiation of washout ([1]; mixed solution 100 μM 2-PBLG and 20 μM 2-TRLG, administered 5 minutes, MIN6 cluster day 13): extremely intense blue fluorescence is emitted from some cells | fluorescence of cells in the cancer cell cluster 12 minutes after completion of administration ([1]; mixed solution 100 μM 2-PBLG, 100 μM 2-NBDLG, 20 μM 2-TRLG): emit blue fluorescence by 2-PBLG continuously | fluorescence of cells in the cancer cell cluster 8 minutes after completion of administration ([1]; mixed solution 100 μM 2-PBLG, 100 μM 2-NBDLG, 20 μM 2-TRLG, MIN6 cluster day 13): intense blue fluorescence by 2-PBLG is maintained continuously | intracellular fluorescence intensity in Blue channel as compared with that before administration ([2]; 100 μM with 20 μM 2-TRLG, 37° C., 5 minutes, image 4 minutes after initiation of washout): scarcely increased | persistence of intracellular blue fluorescence after washout ([2]; images 8 and 20 minutes after initiation of washout): recovered to the autofluorescence level
